For the assay, the system named is TC^H84A on 70S ribosomes displaying cognate UUC or near-cognate CUC codon. Nature of the assay: EF-Tu^H84A chase experiments (ternary complex dissociation from the A site). The assay is classed as biochemical, E. coli. Conditions: 37°C. The text has this:
To address whether viomycin also stabilizes TCs in the A site during initial codon selection, we estimated the rate of dissociation of both cognate and near-cognate tRNAs in TC (TC ^H84A) with a GTPase-deficient mutant of EF-Tu (EF-Tu^H84A). In this EF-Tu mutant, an essential histidine in the G-domain has been replaced by alanine ([Daviter et al., 2003]), but formation of TC ^H84A is unhindered and the mutant TC carries out all partial reactions during initial codon selection, excluding GTP hydrolysis ([Daviter et al., 2003]; [Gromadski and Rodnina, 2004]). Initiated 70S ribosomes with f[^3H]Met-tRNA^fMet in the P site and a cognate (UUC) or near-cognate (CUC) codon in the A site were equilibrated with TC^H84A containing Phe-tRNAGAAPhe and GTP in the presence of varying concentrations of viomycin. TC^H84As were chased from the A site by addition of GTPase proficient TC, containing WT EF-Tu (EF-Tu^WT) and either Phe-tRNAGAAPhe or Leu-tRNAGAGLeu2 , whichever was cognate for the codon in the A site. The dissociation rate for TC^H84A s from the A site, defined as the inverse of the average dissociation time, was then estimated from the rate of f[^3H]Met-Phe or f[^3H]Met-Leu formation (supplementary methods).
All experiments were performed at 37°C in HEPES-polymix buffer (95 mM KCl, 5 mM NH4Cl, 0.5 mM CaCl2, 8 mM putrescine, 1 mM spermidine, 5 mM Mg(OAc)2, 1 mM dithioerythritol and 5 mM HEPES pH 7.5). All reaction mixes contained 10 mM phosphoenolpyruvate (PEP), 1 µg/ml pyruvate kinase (PK) and 0.1 µg/ml myokinase (MK). His-tagged initiation factors IF1, IF2 and IF3, elongation factor Ts, and phenylalanine and leucine aminoacyl tRNA-synthetases were purified using nickel-affinity chromatography (HisTrap GE Healthcare). Wild-type elongation factor Tu was prepared as in [Ehrenberg et al. (1990)]. All protein concentrations were determined using the Bradford assay. Ribosomes (E. coli MRE600) and f[^3H]Met-tRNA^fMet were prepared according to [Antoun et al. (2004)]; ribosome concentration was determined spectrophotometrically. XR7 mRNAs with coding sequences AUG-UUC, AUG-CUC, AUG-UAC and AUG-UUA were prepared as in [Borg and Ehrenberg (2015)], see theGV Appendix I for full mRNA sequences. tRNA^Phe was prepared as in [Holm et al. (2016)]. [^3H]Met and [^3H]GTP were from Perkin-Elmer, viomycin was from USP, all other chemicals were from either Merck or Sigma-Aldrich.
The wild type tufA gene from E. coli Mg1655 was cloned in the pET21b vector with a C-terminal hexahistidine tag. Using this construct, the Histidine at position 84 was changed to Alanine by following the standard protocol from the QIAGEN site directed mutagenesis kit. Successful mutation was confirmed by DNA sequencing. […]

On to viomycin, for which, for the setting “cognate UUC codon, 1 µM viomycin (1.21 ± 0.088 in the absence of viomycin), pH 7.5”, the “rate of TC^H84A dissociation, cognate, 1 µM viomycin” value worked out at 0.616 ± 0.044 s⁻¹. In addition, the “rate of TC^H84A dissociation, cognate, 10 µM viomycin” value (cognate UUC codon, 10 µM viomycin (1.21 ± 0.088 in the absence of viomycin), pH 7.5) is 0.198 ± 0.0275 s⁻¹. Moreover, under “near-cognate CUC codon, 200 µM viomycin, pH 7.5”, the “apparent near-cognate TC^H84A dissociation rate, 200 µM viomycin” value stood at 0.209 ± 0.066 s⁻¹. The Ki (tRNA^Phe(GAA) reading cognate codon UUC, linear fit of Equation 6 to dissociation mean times (Figure 2B), read-out: KI^c (viomycin concentration at which rate of viomycin rebinding to TC-bound ribosome equals rate of TC dissociation unhindered by rebinding)) came to 9.4 ± 3.3 µM.
